The text below walks through data of US5521173A, “Tricyclic benzazepine vasopressin antagonists” (American Home Products Corporation, priority 1995, dated 1996).

As a reminder, the IC50 is the midpoint of a concentration-inhibition curve. Low readings indicate greater potency in that assay, high ones weaker potency in that assay. The inhibition is the relative decrease from the control value, in per cent. Lower therefore signals a response near the control.

In test [1] the target is T1, Vasopressin V1 receptor subtype in Human Platelet Membranes (Homo sapiens, UniProt P37288).
T1 construct: tissue Hudson Valley Blood Services, Westchester Medical Center, Valhalla, N.Y; host or cells: human platelets (frozen platelet rich plasma)
T1 sequence (P37288 whole entry): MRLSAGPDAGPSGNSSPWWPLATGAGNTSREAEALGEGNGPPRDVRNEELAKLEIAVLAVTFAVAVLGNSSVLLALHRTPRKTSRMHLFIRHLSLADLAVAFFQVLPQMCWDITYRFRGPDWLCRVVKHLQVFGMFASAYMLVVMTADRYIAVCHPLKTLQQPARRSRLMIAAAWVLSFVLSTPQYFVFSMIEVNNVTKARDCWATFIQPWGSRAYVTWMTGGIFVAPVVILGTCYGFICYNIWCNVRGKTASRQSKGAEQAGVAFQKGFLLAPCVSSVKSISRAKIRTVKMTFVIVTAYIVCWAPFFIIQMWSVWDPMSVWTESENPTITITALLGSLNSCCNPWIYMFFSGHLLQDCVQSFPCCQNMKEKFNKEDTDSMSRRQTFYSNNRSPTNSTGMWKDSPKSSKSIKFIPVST
Nature of the test: Binding to Vasopressin V1 receptor subtype in Human Platelet Membranes. Here is the method:
Radioligand Binding Experiments with Human Platelet Membranes
(a) Platelet Membrane Preparation
Frozen platelet rich plasma (PRP), (Platelet Source: Hudson Valley Blood Services, Westchester Medical Center, Valhalla, N.Y.) are thawed to room temperature. The tubes containing the PRP are centrifuged at 16,000×g for 10 min. at 4° C. and the supernatant fluid discarded. The platelets resuspended in an equal volume of 50.0 mM Tris.HCl, pH 7.5 containing 120 mM NaCl and 20.0 mM EDTA. The suspension is recentrifuged at 16,000× g for 10 min. This washing step is repeated one more time. The wash discarded and the lysed pellets homogenized in low ionic strength buffer of Tris.HCl, 5.0 mM, pH 7.5 containing 5.0 mM EDTA. The homogenate is centrifuged at 39,000× g for 10 min. The resulting pellet is resuspended in Tris.HCl buffer, 70.0 mM, pH 7.5 and recentrifuged at 39,000× g for 10 min. The final pellet is resuspended in 50.0 mM Tris.HCl buffer pH 7.4 containing 120 mM NaCl and 5.0 mM KCl to give 1.0-2.0 mg protein per ml of suspension.
(b) Binding to Vasopressin V1 receptor subtype in Human Platelet Membranes
In wells of a 96 well format microtiter plate, add 100 μl of 50.0 mM Tris.HCl buffer containing 0.2% BSA and a mixture of protease inhibitors (aprotinin, leupeptin etc.). Then add 20 μl of [^3 H]Ligand (Manning or Arg^8 Vasopressin), to give final concentrations ranging from 0.01 to 10.0 nM. Initiate the binding by adding 80.0 μl of platelet suspension (approx. 100 μg protein). Mix all reagents by pipetting the mixture up and down a few times. Non specific binding is measured in the presence of 1.0 µM of unlabeled ligand (Manning or Arg^8 Vasopressin). Let the mixture stand undisturbed at room temperature for ninety (90) min. Upon this time, rapidly filter off the incubate under vacuum suction over GF/B filters, using a Brandel Harvester. Determine the radioactivity caught on the filter disks by the addition of liquid scintillant and counting in a liquid scintillator.

The target in test [2] is T2, Human V2 Vasopressin Receptor (Homo sapiens, UniProt P30518).
T2 construct: expressed in transfected cells; host or cells: mouse fibroblast cell line LV-2
T2 sequence (P30518 whole entry): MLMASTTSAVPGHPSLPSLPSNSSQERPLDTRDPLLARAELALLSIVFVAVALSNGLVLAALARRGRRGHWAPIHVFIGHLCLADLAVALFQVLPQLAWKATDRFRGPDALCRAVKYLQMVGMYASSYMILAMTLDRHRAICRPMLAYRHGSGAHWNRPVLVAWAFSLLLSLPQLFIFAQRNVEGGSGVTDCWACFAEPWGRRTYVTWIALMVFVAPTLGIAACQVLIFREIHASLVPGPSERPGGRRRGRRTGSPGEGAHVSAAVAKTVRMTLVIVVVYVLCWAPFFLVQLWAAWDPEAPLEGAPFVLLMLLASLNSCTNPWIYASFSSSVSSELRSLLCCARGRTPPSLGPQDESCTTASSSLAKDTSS
Nature of the test: Binding to Membranes of Mouse Fibroblast Cell Line (LV-2) Transfected with the cDNA Expressing the Human V2 Vasopressin Receptor. The note with it: ** LV-2 cell membranes. The protocol: (a) Membrane Preparation Flasks of 175 ml capacity, containing attached cells grown to confluence, are cleared of culture medium by aspiration. […] The content of all flasks is poured into a centrifuge tube and the cells pelleted at 300× g for 15 min. The Hank's based solution is aspirated off and the cells homogenized with a polytron at setting #6 for 10 sec in 10.0 mM Tris.HCl buffer, pH 7.4 containing 0.25M sucrose and 1.0 mM EDTA. The homogenate is centrifuged at 1500× g for 10 min to remove ghost membranes. The supernatant fluid is centrifuged at 100,000× g for 60 min to pellet the receptor protein. […] (b) Receptor Binding […] Non specific binding is assessed in the presence of 1.0 μM of unlabeled ligand, added in 20 μl volume. […] The radioactivity trapped on the filter disk by the ligand-receptor complex is assessed by liquid scintillation counting in a Packard LS Counter, with an efficiency of 65% for tritium. The data are analyzed for IC50 values by the LUNDON-2 program for competition (LUNDON SOFTWARE, Ohio).

In a further test the target is T3, oxytocin receptors (Rattus norvegicus, UniProt P70536).
T3 construct: The uteri are dissected out, cleaned of fat and connective tissues; from tissue; host or cells: uteri of DES-treated female Sprague-Dawley rats
T3 sequence (P70536 1-388): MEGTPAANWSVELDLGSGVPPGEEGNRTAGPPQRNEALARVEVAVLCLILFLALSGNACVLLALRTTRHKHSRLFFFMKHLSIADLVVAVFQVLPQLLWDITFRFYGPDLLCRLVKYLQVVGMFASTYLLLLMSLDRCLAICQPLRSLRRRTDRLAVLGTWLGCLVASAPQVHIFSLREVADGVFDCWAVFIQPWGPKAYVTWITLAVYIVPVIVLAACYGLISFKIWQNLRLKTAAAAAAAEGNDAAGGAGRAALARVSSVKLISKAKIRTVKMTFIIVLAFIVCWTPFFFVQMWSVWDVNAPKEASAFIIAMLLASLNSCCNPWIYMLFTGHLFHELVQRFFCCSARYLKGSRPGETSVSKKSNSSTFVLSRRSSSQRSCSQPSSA
Nature of the test: Oxytocin Receptor Binding. The arrangement: species or system rat (female Sprague-Dawley). The note with it: for IC50: 1.0 nM [3H]OT. Here is the method: Oxytocin Receptor Binding
Female Sprague-Dawley rats weighing approximately 200-250 g are injected intramuscularly (i.m.) with 0.3 mg/kg of body weight of diethylstilbestrol (DES). The rats are sacrificed 18 hours later under pentobarbital anesthesia. The uteri are dissected out, cleaned of fat and connective tissues and rinsed in 50 ml of normal saline. The tissue pooled from six rats is homogenized in 50 ml of […] Tris.HCl, containing 0.5 mM dithiothreitol and 1.0 mM EDTA, adjusted to pH 7.4, using a polytron at setting 6 with three passes of 10 sec each. The homogenate is passed through two (2) layers of cheesecloth and the filtrate centrifuged at 1000× g for 10 min. The clear supernatant is removed and recentrifuged at 165,000× g for 30 min. The resulting pellet containing the oxytocin receptors is resuspended in 50.0 mM Tris.HCl containing 5.0 mM MgCl2 at pH 7.4, to give a protein concentration of 2.5 mg/ml of tissue suspension. This preparation is used in subsequent binding assays with [^3 H]Oxytocin.
Binding of 3,5-[^3 H]Oxytocin ([^3 H]OT) to its receptors is done in microtiter plates using [^3 H]OT, at various concentrations, in an assay buffer of 50.0 mM Tris.HCl, pH 7.4 and containing 5.0 mM MgCl2, and a mixture of protease inhibitors: BSA, 0.1 mg; aprotinin, 1.0 mg; 1,10-phenanthroline, 2.0 mg; […], 10.0 mg; and PMSF, 0.3 mg per 100 ml of buffer solution. Non-specific binding is determined in the presence of 1.0 uM unlabeled OT. The binding reaction is terminated after 60 min., at 22° C., by rapid filtration through glass fiber filters using a Brandel, cell harvester (Biomedical Research and Development Laboratories,Inc., Gaithersburg, Md.). Competition experiments are conducted at equilibrium using 1.0 nM [^3 H]OT and varying the concentration of the displacing agents. The concentrations of agent displacing 50% of [^3 H]OT at its sites (IC50) are calculated by a computer assisted LUNDON-2 program (LUNDON SOFTWARE INC., Ohio, USA).

For the compound `O=C(c1ccc(-c2ccccc2)cc1)N1Cc2cccn2Cc2ccccc21` [Example 19, 10-([1,1'-Biphenyl]-4-ylcarbonyl)-10,11-dihydro-5H-pyrrolo[2,1-c][1,4]benzodiazepine], the IC50 was 0.0029 µM in test [1], 0.39 µM in test [2] and 0.043 µM on oxytocin receptors. For the same compound, the inhibition at 10 µM at oxytocin receptors amounted to 81%.
In the case of `O=C(c1ccc(-c2ccccc2C(F)(F)F)cc1)N1Cc2cccn2Cc2ccccc21` [Example 8], at oxytocin receptors, testing at 10 µM gave an inhibition of 95% and the IC50 came to 1.27 µM.
With `O=C(c1ccc(-c2cc(F)cc(F)c2)cc1)N1Cc2cccn2Cc2ccccc21` [Example 3, 10,11-Dihydro-10-[4-(3,5-difluorophenyl)benzoyl]-5H-pyrrolo[2,1-c][1,4]benzodiazepine], the IC50 in test [1] was determined as 0.085 µM; in test [2] it was 2.5 µM; on oxytocin receptors, 2.6 µM. At oxytocin receptors, testing at 10 µM gave an inhibition of 89%.
`O=C(c1ccc(-c2ccccc2)cc1)N1Cc2ccnn2Cc2ccccc21` [Example 7, 5-([1,1'-Biphenyl]-4-ylcarbonyl)-5,10-dihydro-4H-pyrazolo[5,1-c][1,4]benzodiazepine]: the IC50 came to 0.014 µM in test [1], 1.7 µM in test [2] and 0.23 µM at oxytocin receptors. This compound displayed an inhibition at 10 µM on oxytocin receptors of 100%.
Consider `O=C(c1ccc(-c2ccccn2)cc1)N1Cc2cccn2Cc2ccccc21` [Example 9, 10,11-Dihydro-10-[4-(2-pyridinyl)benzoyl]-5H-pyrrolo[2,1-c][1,4]benzodiazepine], for which, at oxytocin receptors, testing at 10 µM gave an inhibition of 100% and the IC50 is 0.13 µM.
